Experimental data as given in patent US20240408008A1, “AN IN-SITU GELLING ENEMA OF RIFAMYCIN FOR TREATING POUCHITIS AND DISTAL ULCERATIVE COLITIS” (COSMO TECHNOLOGIES LTD., priority 2021, published 2024).
In brackets after ≈: the same amount, converted by molar mass.

Tests used:
K. pneumoniae = assay: MIC, broth dilution; assay type: cell-based; settings: Klebsiella pneumoniae, aerobic
Rothia dentocariosa = assay: MIC, broth dilution; assay type: cell-based; settings: DSM43762; Rothia dentocariosa (DSM 43762); aerobic
Streptococcus pyogenes = assay: MIC, broth dilution; assay type: cell-based; settings: ATCC700460; Streptococcus pyogenes (ATCC 700460); aerobic
E. faecalis = assay: MIC, broth dilution; assay type: cell-based; settings: Enterococcus faecalis, aerobic
Bifidobacterium breve = assay: MIC, broth dilution; assay type: cell-based; settings: DSM20091; Bifidobacterium breve (DSM 20091); anaerobic
B. longum = assay: MIC, broth dilution; assay type: cell-based; settings: Bifidobacterium longum, anaerobic
B. adolescentis = assay: MIC, broth dilution; assay type: cell-based; settings: Bifidobacterium adolescentis, DSM20083; B. adolescentis (DSM 20083); anaerobic
B. bifidum = assay: MIC, broth dilution; assay type: cell-based; settings: Bifidobacterium bifidum, DSM20082; B. bifidum (DSM 20082); anaerobic
Ruminococcus gnavus = assay: MIC, broth dilution; assay type: cell-based; settings: Mediterraneibacter gnavus, DSM108212; Ruminococcus gnavus (DSM 108212); anaerobic
Fusobacterium ulcerans = assay: MIC, broth dilution; assay type: cell-based; settings: DSM19847; Fusobacterium ulcerans (DSM 19847); anaerobic
Eikenella corrodens = assay: MIC, broth dilution; assay type: cell-based; settings: DSM8340; Eikenella corrodens (DSM 8340); anaerobic
[1] = tested on: Aggregatibacter actinomycetemcomitans; assay: MIC, broth dilution; assay type: cell-based; settings: DSM11123; Aggregatibacter actinomycetemcomitans (DSM 11123); anaerobic
Porphiromonas gingivalis = assay: MIC, broth dilution; assay type: cell-based; settings: Porphiromonas gingivalis (DSM 20709); anaerobic
Prevotella intermedia = assay: MIC, broth dilution; assay type: cell-based; settings: DSM20706; Prevotella intermedia (DSM 20706); anaerobic
Parvimonas micra = assay: MIC, broth dilution; assay type: cell-based; settings: DSM20468; Parvimonas micra (DSM 20468); anaerobic
C. perfringens = assay: microbe, parasite or virus in culture; assay type: cell-based; settings: Clostridium perfringens, DSM11783
Bacteroides fragilis = assay: MIC, broth dilution; assay type: cell-based; settings: anaerobic
[2] = tested on: selected bacteria involved in pouchitis pathogenesis; assay: MIC, broth dilution, whole panel; assay type: cell-based; settings: Gram-positive and Gram-negative, aerobic and anaerobic bacteria of Table 3
Text: The Minimum Inhibitory Concentration (MIC) is defined as the lowest concentration expressed in mg/L (equivalent to μg/mL) of an antimicrobial ingredient or agent that is bacteriostatic (prevents the visible growth of bacteria). MICs are used to evaluate the antimicrobial efficacy of various compounds by measuring the effect of decreasing concentrations of antibiotic over a defined period in terms of inhibition of microbial population growth. MIC is generally regarded as the most basic laboratory measurement of the activity of an antimicrobial agent against an organism.
Antimicrobial characteristics of Rifamycin sodium salt was assessed on a panel of selected bacteria involved in pouchitis pathogenesis and a standard broth dilution method was used to determine the MIC of Rifamycin. Briefly, two-fold dilutions of the tested compounds were dispensed in 96 round bottom well plates, each dilution was processed in the liquid culture medium suitable for the tested bacterial species. Bacteria inocula were prepared by a suspension of the microbial strain in sterile water saline and adjusted to a concentration of 0.5McFarland standard corresponding to 1.5×10^8 CFU/ml. A final bacterial concentration of 0.5-1×10^5 CFU/ml was distributed in each well. […] MIC was recorded when there was visible growth in the positive growth control column (bacterial inoculum without test substance). […]

mTOR pathway = assay: Inhibition of mTOR and S6R phosphorylation in primary colonic epithelial cells, flow cytometry; assay type: cell-based, human
Protocol: To evaluate Rifamycin activity on the mTOR pathway, primary colonic epithelial cells were serum starved for 24 hr and restimulated with serum for 48 hr to induce phosphorylation of mTOR and its downstream target protein […]. Serum stimulated cells were treated with Rifamycin SV, Rifaximin, the positive control Rapamycin, or the negative vehicle control DMSO. Cells were fixed, stained with antibodies against pmTOR and pS6R then analyzed by flow cytometry.

[3] = Rifamycin concentration in colon of DSS mice, HPLC MS/MS; assay type: in vivo; settings: enema 67 mg/kg, all the tested time-points
Protocol: For this study, a group of mice was treated by enema with Batch 7663 (indicated as CB0125 in the figures) (dose 45 mg/kg), one group was treated by enema with Placebo Batch 7679 as a comparator for 7663; a group was treated by enema with Rifamycin powder dissolved in water (67 mg/kg). One group of mice was treated orally PO with 5-ASA at the dose of 100 mg/Kg; this group was introduced as positive control. 5-ASA is the golden standard therapy for inflammatory bowel diseases, including UC, distal UC and proctitis. One group was treated by enema with the vehicle (H2O) only, as negative control.
For PK analysis colon samples were cut into in pieces and washed 3 times with PBS to remove surface contaminants.

With `CO[C@H]1/C=C/O[C@@]2(C)Oc3c(C)c(O)c4c(O)c(cc(O)c4c3C2=O)NC(=O)/C(C)=C\C=C\[C@H](C)[C@H](O)[C@@H](C)[C@@H](O)[C@@H](C)[C@H](OC(C)=O)[C@@H]1C` [Rifamycin SV] the MIC (K. pneumoniae; DSM16609, K. pneumoniae (DSM 16609)) was > 64 µg/mL, the MIC (K. pneumoniae; DSM25721, K. pneumoniae (DSM 25721)) was 64 µg/mL (≈ 91.7 µM) and the MIC (Rothia dentocariosa) was < 0.03 µg/mL. For the same molecule, the MIC (Streptococcus pyogenes) was 0.5 µg/mL (≈ 0.717 µM), the MIC (E. faecalis; ATCC29212, E. faecalis (ATCC 29212)) was 50 µg/mL (≈ 71.7 µM) and the MIC (E. faecalis; DSM2570, E. faecalis (DSM 2570)) was 200 µg/mL (≈ 287 µM). It also gave an MIC (E. faecalis; DSM2921, E. faecalis (DSM 2921)) of 64 µg/mL (≈ 91.7 µM), an MIC (E. faecalis; DSM2981, E. faecalis (DSM 2981)) of 200 µg/mL (≈ 287 µM) and an MIC (E. faecalis; DSM6134, E. faecalis (DSM 6134)) of 50 µg/mL (≈ 71.7 µM). It also gave an MIC (E. faecalis; E. faecalis (6172818861)) of 12.5 µg/mL (≈ 17.9 µM), an MIC (E. faecalis; E. faecalis (C 46)) of 12.5 µg/mL (≈ 17.9 µM) and an MIC (E. faecalis; E. faecalis (E 83)) of 3.12 µg/mL (≈ 4.47 µM). For the same molecule, the MIC (Bifidobacterium breve) was 0.5 µg/mL (≈ 0.717 µM), the MIC (B. longum; DSM20088, B. longum (DSM 20088)) was 0.5 µg/mL (≈ 0.717 µM) and the MIC (B. longum; DSM20090, B. longum (DSM 20090)) was 0.25 µg/mL (≈ 0.358 µM). The MIC (B. adolescentis) was 1 µg/mL (≈ 1.43 µM), the MIC (B. bifidum) was 1 µg/mL (≈ 1.43 µM) and the MIC (Ruminococcus gnavus) was < 0.03 µg/mL. The MIC (Fusobacterium ulcerans) was 16 µg/mL (≈ 22.9 µM), the MIC (Eikenella corrodens) was < 0.3 µg/mL and the MIC [1] was < 0.3 µg/mL. For the same molecule, the MIC (Porphiromonas gingivalis) was < 0.3 µg/mL, the MIC (Prevotella intermedia) was < 0.3 µg/mL and the MIC (Parvimonas micra) was < 0.3 µg/mL. For the same molecule, the MIC (C. perfringens) was < 0.03 µg/mL, the MIC (Bacteroides fragilis; Bacteroides fragilis, DSM1396, B. fragilis (DSM 1396)) was 0.39 µg/mL (≈ 0.559 µM) and the MIC (Bacteroides fragilis; Bacteroides fragilis, DSM9668, B. fragilis (DSM 9668)) was 100 µg/mL (≈ 143 µM). The MIC (Bacteroides fragilis; Bacteroides fragilis, DSM9669, B. fragilis (DSM 9669)) was 100 µg/mL (≈ 143 µM), the MIC (Bacteroides fragilis; Bacteroides fragilis, DSM9670, B. fragilis (DSM 9670)) was 50 µg/mL (≈ 71.7 µM) and the MIC (Bacteroides fragilis; Bacteroides fragilis, DSM9671, B. fragilis (DSM 9671)) was 50 µg/mL (≈ 71.7 µM). For the same molecule, the MIC (Bacteroides fragilis; DSM2151, Bacteroides fragilis (DSM 2151)) was 0.78 µg/mL (≈ 1.12 µM), the “antimicrobial activity in vitro” value [2] was “powerful antimicrobial activity” and the IC50 (mTOR pathway; Homo sapiens, Epithelial cell, serum stimulated primary colonic epithelial cells, 48 hr, read-out: IC50, % cells positive for anti-pmTOR and anti-pS6R relative to DMSO) was 9.9 µM. For the same molecule, the “mTOR pathway potency, fold less potent than Rapamycin” value (mTOR pathway; ratio of IC50) was 20 fold, the “mTOR pathway potency, fold more potent than Rifaximin” value (mTOR pathway; ratio of IC50) was 4 fold and the “Rifamycin concentration in the colon homogenate” value [3] was “lower than that of the animals treated with formulation 7663”.
